Results on one substance are retold here after patent US20190358264A1, “METHODS OF TREATING DISEASES ASSOCIATED WITH ILC2 CELLS” (Limm Therapeutics, SA, priority 2016, published 2019).

One experiment concerns ERK1/2. As to the kind of experiment: ERK phosphorylation in purified ILC2s activated with NmU23. The conditions noted are these: NmU23 100 ng/mL, 10 minutes, with IL-2 and IL-7. It is filed as cell-based, mouse. As for the experimental part:
Purified ILC2s from small intestine and lung were FBS starved for 2 hours before in vitro activation with NmU23 at 37° C. To test for ERK phosphorylation (Cell Signaling Technology), purified ILC2s were activated with NmU23 (100 ng/mL; Phoenix pharmaceuticals) in the presence of IL-2 and IL-7 (10 ng/mL; Peprotech) for 10 minutes prior to intracellular staining. To test ERK, calcineurin and NFAT activation, ILC2s were cultured for 1 hour with their respective inhibitor and then stimulated with NmU23 overnight before mRNA expression analysis. ERK inhibitor—PD98059 (Sigma); Calcineurin inhibitor—FK506 (Tocris Bioscience); NFAT inhibitor—11R-VIVIT (Tocris Bioscience).

A further experiment deals with ILC2s. Kind of experiment: In vitro activation of purified ILC2s, type 2 cytokine protein by intracellular staining. The class given is cell-based, mouse. The conditions noted are these: purified ILC2s, Nmur1 competent vs deficient; NMUR1-dependent. How it is done:
FIGS. 10a-10d: FIG. 10a, Ki67 expression in intestinal ILC2s after an overnight in vitro stimulation with NmU23 alone (100 ng/mL, Phoenix Pharmaceutical) or NmU23 together with the survival cytokines Interleukin (IL)-2 and/or IL-7 (10 ng/mL). FIG. 10b, Ki67 expression in intestine ILC2 after in vivo administration of NmU23 (4 g/day during 2 days). n=5. FIG. 10c, ILC2-derived type 2 cytokines (IL-5, IL-13 and Amphiregulin (Areg)) in sorted intestine ILC2 after an overnight stimulation with NmU23, mouse recombinant IL-25 or IL-33 (R&D) (10, 50 and 100 ng/mL). Negative control: unstimulated ILC2, Positive control: ILC2 activated with phorbol 12-myristate 13-acetate (PMA, 50 ng/ml) plus ionomycin (500 ng/ml). n=3. FIG. 10d, Dot plots representative of the cytokine production with increasing dose of NmU23, rIL-25 and rIL-33. *P<0.05; **P<0.01; ***P<0.001; ****P<0.0001; ns not significant.
For in vitro experiments, purified lung and small intestine lamina propria ILC2s were FBS starved for 2 hours prior to stimulation and cultured in complete RPMI (supplemented with 10% foetal bovine serum (FBS), 1% hepes, sodium pyruvate, glutamine, streptomycin and penicillin) at 37° C. For mRNA analysis, ILC2s were stimulated overnight with recombinant mouse Neuromedin U 23 peptide (NmU23, 100 ng/mL; Phoenix pharmaceuticals). Both NmU23-stimulated and control ILC2s were cultured in the presence of IL-2 and IL-7 (10 ng/mL; Peprotech). ILC2s were lysed using RLT buffer (Qiagen). For cytokine protein analysis, ILC2s were incubated exclusively with brefeldin A (eBioscience) for 12 hours prior to intracellular staining. For in vivo experiments, B6 mice were injected intraperitoneal with NmU23 peptide (2 g/day) during Nippostrongylus brasiliensis infection or with a single dose of NmU23 (20 μg) and analyzed after 8 hours. Control mice were treated with PBS alone.
Intracellular staining was performed using IC fixation/permeabilization kit (eBioscience). Flow cytometry analysis and cell sorting were performed using BD LSRFORTESSA and BD FACSAria flow cytometers (BD Biosciences). […]

Consider “recombinant mouse Neuromedin U 23 peptide (FKAEYQSPSVGQSKGYFLFRPRN; listed as Mus musculus) [NmU23, NMUR1 agonist neuropeptide, Phoenix pharmaceuticals]”, for which the “ERK1/2 activation (pERK) in ILC2s” value in the experiment on ERK1/2 is “immediate and efficient ERK1/2 activation”. In addition, the “expression of the type 2 cytokine proteins IL-5 and IL-13 in ILC2s” value in the experiment on ILC2s is recorded as “potent expression”.
